Measured values taken from ChEMBL document CHEMBL1255412, “New mutation in 23S rRNA gene associated with high level of azithromycin resistance in Neisseria gonorrhoeae” (2010).
Values after ≈ are worked out from the molar mass of the structure shown.

How the values were obtained:
Neisseria gonorrhoeae [1] = experiment: Antimicrobial activity against Neisseria gonorrhoeae isolate 3783; assay type: functional
Neisseria gonorrhoeae [2] = experiment: Antimicrobial activity against high-level azithromycin resistant Neisseria gonorrhoeae isolate 1782 harboring A2143G mutation in peptidyltransferase loop in domain V of 23S rRNA alleles; assay type: functional
Neisseria gonorrhoeae [3] = experiment: microbe, parasite or virus in culture
Description: Antimicrobial activity against azithromycin resistant Neisseria gonorrhoeae isolate harboring C2599T mutation in peptidyltransferase loop in domain V of 23S rRNA alleles and T insertion in mtrR gene promoter region

Neisseria gonorrhoeae [4] = experiment: Antimicrobial activity against azithromycin resistant Neisseria gonorrhoeae isolate 2498 harboring C2599T mutation in peptidyltransferase loop in domain V of 23S rRNA alleles; assay type: functional

## CC[C@H]1OC(=O)[C@H](C)[C@@H](O[C@H]2C[C@@](C)(OC)[C@@H](O)[C@H](C)O2)[C@H](C)[C@@H](O[C@@H]2O[C@H](C)C[C@H](N(C)C)[C@H]2O)[C@](C)(O)C[C@@H](C)CN(C)[C@H](C)[C@@H](O)[C@]1(C)O [AZITHROMYCIN]
Neisseria gonorrhoeae [1]
  MIC: 0.06 µg/mL (≈ 0.0801 µM)
Neisseria gonorrhoeae [2]
  MIC: > 2050 µg/mL
Neisseria gonorrhoeae [3]
  MIC: 4 µg/mL (≈ 5.34 µM)
Neisseria gonorrhoeae [4]
  MIC: 8 µg/mL (≈ 10.7 µM)
